Results: PubChem BioAssay AID266 (DTP/NCI, 2004)
Results filed as inconclusive are left out.

Test system: Nude mice, LX-1 lung xenograft intrarenal, tumor weight T/C
Assay: NCI In Vivo Anticancer Drug Screen. Data for tumor model Human Lung LX-1 Xenograft (intrarenal inoculation) in NU/NU BALB/C (nude) mice
Details: endpoint: mean tumor weight change, higher = larger tumour
Method: The antitumor activity of compounds was measured in mice bearing transplantable tumors. Survival or tumor size were measured and the results are expressed as the measurement made in the treated group (T) divided by the measurement made in the vehicle treated control group (C). The tumor model used in this assay is Human Lung LX-1 Xenograft (intrarenal inoculation) in NU/NU BALB/C (nude) mice

[1] = dose: 150.0 mg/kg/injection, schedule: Q04DX003 (sc), vehicle: saline
[2] = dose: 300.0 mg/kg/injection, schedule: Q04DX003 (sc), vehicle: saline
[3] = dose: 50.0 mg/kg/injection, schedule: Q01DX010 (sc), vehicle: saline

`CCOC(=O)C(N)CSC(=O)NC` (stereo not drawn) was tested, and the T/C (dose: 150.0 mg/kg/injection, schedule: Q04DX003 (ip), vehicle: saline) was 82 % of control, the T/C (dose: 300.0 mg/kg/injection, schedule: Q04DX003 (ip), vehicle: saline) was 52 % of control and the T/C (dose: 600.0 mg/kg/injection, schedule: Q04DX003 (ip), vehicle: saline) was 102 % of control.

`Cc1cc(NCCCCCCCNc2cc(C)nc3cc(N)ccc23)c2ccc(N)cc2n1` was tested, and the T/C (dose: 12.5 mg/kg/injection, schedule: Q01DX010 (sc), vehicle: saline with Tween-80) was 48 % of control and the T/C (dose: 25.0 mg/kg/injection, schedule: Q01DX010 (sc), vehicle: saline with Tween-80) was 11 % of control.

`O=C1CCC(=O)N1CO` was tested, and the T/C [1] was 95 % of control, the T/C [2] was 93 % of control and the T/C (dose: 600.0 mg/kg/injection, schedule: Q04DX003 (sc), vehicle: saline) was 82 % of control. The T/C (dose: 1200.0 mg/kg/injection, schedule: Q04DX003 (sc), vehicle: saline) was 63 % of control.

`Cc1ccc(S(=O)(=O)NC(=O)C2C(=O)CC3(CCCCC3)CC2=O)cc1` was tested, and the T/C (dose: 300.0 mg/kg/injection, schedule: Q04DX003 (sc), vehicle: Klucel (hydroxypropylcellulose) (HPC)) was 122 % of control, the T/C (dose: 600.0 mg/kg/injection, schedule: Q04DX003 (sc), vehicle: Klucel (hydroxypropylcellulose) (HPC)) was 101 % of control and the T/C (dose: 2400.0 mg/kg/injection, schedule: Q04DX003 (sc), vehicle: Klucel (hydroxypropylcellulose) (HPC)) was 84 % of control.

In the case of `N#CN=[N+]([O-])c1ccc(C(=O)O)cc1`, the T/C (dose: 11.25 mg/kg/injection, schedule: Q04DX003 (sc), vehicle: Klucel (hydroxypropylcellulose) (HPC)) is reported as 66 % of control, the T/C (dose: 22.5 mg/kg/injection, schedule: Q04DX003 (sc), vehicle: Klucel (hydroxypropylcellulose) (HPC)) is reported as 65 % of control and the T/C (dose: 45.0 mg/kg/injection, schedule: Q04DX003 (sc), vehicle: Klucel (hydroxypropylcellulose) (HPC)) is reported as 47 % of control.

With `CN(N=O)C(=O)N[C@@H](C=O)[C@@H](O)[C@H](O)[C@H](O)CO` the T/C [1] was 40 % of control and the T/C [2] was 4 % of control.

`OC1OC2COC(c3ccccc3)OC2C(O)C1O` (stereo not drawn) was tested, and the T/C (dose: 300.0 mg/kg/injection, schedule: Q04DX003 (sc), vehicle: water) was 101 % of control, the T/C (dose: 600.0 mg/kg/injection, schedule: Q04DX003 (sc), vehicle: water) was 117 % of control and the T/C (dose: 1200.0 mg/kg/injection, schedule: Q04DX003 (sc), vehicle: water) was 105 % of control. For the same compound, the T/C (dose: 2400.0 mg/kg/injection, schedule: Q04DX003 (sc), vehicle: water) was 90 % of control.

For `CCN(CC)CCNc1ccc(C)c2sc3ccccc3c(=O)c12`, the T/C [3] was 211 % of control.

For `NC1=NCN(C2OC(CO)C(O)C2O)C(=O)N1` (stereo not drawn), the T/C (dose: 25.0 mg/kg/injection, schedule: Q01DX010 (sc), vehicle: saline) was 86 % of control, the T/C [3] was 180 % of control and the T/C (dose: 100.0 mg/kg/injection, schedule: Q01DX010 (sc), vehicle: saline) was 112 % of control. The T/C (dose: 166.66 mg/kg/injection, schedule: Q04DX003 (sc), vehicle: saline) was 158 % of control, the T/C (dose: 200.0 mg/kg/injection, schedule: Q01DX010 (sc), vehicle: saline) was 84 % of control and the T/C (dose: 333.32 mg/kg/injection, schedule: Q04DX003 (sc), vehicle: saline) was 55 % of control. For the same compound, the T/C (dose: 666.65 mg/kg/injection, schedule: Q04DX003 (sc), vehicle: saline) was 88 % of control.

`O=C(c1cccnc1)c1cc(-c2ccccn2)c(=O)n2ccccc12` was tested, and the T/C (dose: 300.0 mg/kg/injection, schedule: Q04DX003 (sc), vehicle: saline with Tween-80) was 95 % of control, the T/C (dose: 600.0 mg/kg/injection, schedule: Q04DX003 (sc), vehicle: saline with Tween-80) was 74 % of control and the T/C (dose: 1200.0 mg/kg/injection, schedule: Q04DX003 (sc), vehicle: saline with Tween-80) was 92 % of control. The T/C (dose: 2400.0 mg/kg/injection, schedule: Q04DX003 (sc), vehicle: saline with Tween-80) was 74 % of control.
